SMILES strings stand for the structures.

Broadly, the % Inhibition is the percentage by which the read-out fell short of the control. Broadly, the inhibition is the drop in the measured response relative to a control, in per cent. The term IC50 denotes the concentration that gives 50% inhibition.

In this assay the target is 5HT2A (Homo sapiens, UniProt P28223). Briefly: Human 5HT2A inhibition assay (FLIPR calcium 6, 5HT stimulus, stably transfected HEK293 cells). It counts as cell-based. As to conditions: for inhibition at 1 µM: HEK293, 1 μM, read-out: % Inhibition at 1 μM (SD). Set-up: expressed in transfected cells; host or cells: HEK293. The method, then: The derivatives were evaluated at a concentration of 1 μM for their antagonist activity on the 5HT2A receptor (Tables 1–3)[33],[34]. […] The cells were stained with 100 μL of cytosolic calcium dye using the FLIPR calcium 6 assay solution (Molecular devices, #R8190) supplemented with 2.5 mM probenecid (Sigma; P8761) and incubated for 1 h at 37 °C. After 1 h, the designated amount of the compound was treated in each well and incubated for another 1 h at 37 °C. […] Experimental conditions for the 5HT subtypes can be found in the Supporting Information (Supplementary Table 1).
Sequence of 5HT2A (P28223 whole entry): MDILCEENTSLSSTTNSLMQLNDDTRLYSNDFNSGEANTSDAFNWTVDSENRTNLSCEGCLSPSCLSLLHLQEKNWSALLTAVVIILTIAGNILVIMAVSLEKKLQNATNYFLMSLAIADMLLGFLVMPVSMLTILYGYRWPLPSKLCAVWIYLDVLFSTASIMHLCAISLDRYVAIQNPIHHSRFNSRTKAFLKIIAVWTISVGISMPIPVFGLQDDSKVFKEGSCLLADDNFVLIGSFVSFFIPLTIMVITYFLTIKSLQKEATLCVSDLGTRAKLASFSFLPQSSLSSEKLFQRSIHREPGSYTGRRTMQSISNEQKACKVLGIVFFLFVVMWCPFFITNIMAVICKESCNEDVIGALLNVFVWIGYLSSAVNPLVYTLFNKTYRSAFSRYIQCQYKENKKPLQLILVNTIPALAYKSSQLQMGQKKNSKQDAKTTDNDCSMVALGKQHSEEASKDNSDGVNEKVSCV

As for `O=C1Cc2cc(C(=O)CN3CCC(=C4c5ccc(Cl)cc5CCc5cccnc54)CC3)ccc2N1` [Compound 8b], the “% Inhibition at 1 μM (SD)” value came out at 68.34 ± 2.78% and the inhibition at 1 µM worked out at 68%.

For `Cc1nc2n(c(=O)c1CCN1CCC(=C3c4ccc(Cl)cc4CCc4cccnc43)CC1)CCC[C@H]2O` (single isomer, unassigned) [Compound 22 g], the IC50 was 0.0111 µM.

With `Cc1nc2n(c(=O)c1CCN1CCC(=C3c4ccc(Cl)cc4CCc4cccnc43)CC1)CCC[C@@H]2O` (single isomer, unassigned) [Compound 22 f], the IC50 is 0.0106 µM.

Turning to `Cc1nc2n(c(=O)c1CCN1CCC(=C3c4ccc(Cl)cc4CCc4cccnc43)CC1)CCC[C@H]2O` (single isomer, unassigned) [22 g], the “% Inhibition at 1 μM (SD)” value amounted to 97.17 ± 7.11%.

For the compound `O=C1Cc2cc(C(O)CN3CCC(=C4c5ccc(Cl)cc5CCc5cccnc54)CC3)ccc2N1` (stereo not shown) [Compound 9b], the IC50 is 0.0214 µM and the inhibition at 1 µM is 92.2 ± 1.59%.

Consider `Cc1nc2n(c(=O)c1CCN1CCC(=C3c4ccccc4CCc4cccnc43)CC1)CCCC2O` (stereo not shown) [Compound 11e], for which the IC50 turned out to be 0.061 µM, the “IC50 (nM)” value is recorded as “less potency than compound 11c” and the inhibition at 1 µM worked out at 89.2 ± 11%.

For the origin of these results see paper PMC10799935, “Discovery of a peripheral 5HT2A antagonist as a clinical candidate for metabolic dysfunction-associated steatohepatitis” (Nature Communications, 2024).
